The nature of data set [1]: Spraying coated dispersion with water solutions (cospraying). Format: physicochemical. The following applies: water solution of the compound sprayed on knife coated dispersion of Example 9B. The text has this:
For an ionic dispersion, a solution containing polyion of the opposite charge can be applied to the film to create an instantaneous tack-free film. For example, an anionic dispersion can be coated and before it has formed a film, a solution containing polyvalent cation is sprayed on the coating's surface to yield a tack free film. This method is commonly referred to as “cospraying.” A preferred solution contains water and metal cations, such as calcium and magnesium. Preferably, the film becomes tack free almost instantaneously after spraying the water solution (i.e., within a minute, preferably within a few seconds). In applications where very rapid tack-free times are required, such as in preoperative preparation for surgery, it may be beneficial to mist or otherwise wet the surface of the film. By “tack-free,” it is generally meant that the misted film contains little or no adhesion to other substrates at ambient conditions, typically from about 20° to 30° C.
The dispersions of Example 9B we knife coated onto a polypropylene coated paper release liner and sprayed with water solutions containing the following materials. The film appearance was recorded in the Result column.

The nature of data set [2]: Stability of dispersions on storage / standing. Format: physicochemical. The following applies: Example 6 dispersions. The protocol:
The particle size of certain dispersions was measured on a Coulter LS 100 laser Particle Size Analyzer equipped with a microvolume module. Usually, the particle size was measured one day after dispersions were made. The particle size was measured again about 30 days after the dispersions were made. During this period, the dispersions were sealed and stored at room temperature. Samples were diluted in the same solvent mixture as the original dispersion to make the measurement. The results are shown in Table 2 below, which indicate that the dispersions have mean particle sizes generally under about 5 to 6 micrometers (μm). All dispersions appear to be stable after about 30 days.
After adding the prepolymer, each example was adjusted to a pH of about 7.0. To Example 2B was added a 40% solids, water based polyurethane pressure sensitive adhesive (PSA) (WD4006 from H.B. Fuller, St. Paul, Minn.). The PSA was added to increase adhesion to skin. The PSA was added to the alcohol-water solvent system prior to prepolymer addition. The EDA was added and the reaction mixture stirred at high speed for 20 minutes. Stable dispersions were obtained in call cases.
The dispersions with and without iodine anti-microbial agents were applied to human skin in small patches and allowed to dry. Adhesion was very good for all samples.

As for `O=C([O-])CC(O)(CC(=O)[O-])C(=O)[O-].O=C([O-])CC(O)(CC(=O)[O-])C(=O)[O-].[Ca+2].[Ca+2].[Ca+2]` [Calcium Citrate], in data set [1], the “Result (film appearance)” value is given as “No effect”. On the same count and under the same terms, next, `[Ca+2].[Cl-].[Cl-]` [Calcium chloride]: “Almost instantaneous tack-free film”.

For the molecule `[Cl-].[Na+]` [Sodium Chloride], the “Result (film appearance)” value in data set [1] was “Random coagulation”. Regarding povidone-iodine, in data set [2], the “stability of anti-microbial agent in the dispersions upon standing” value is recorded as “split out of the dispersions as a separate phase upon standing”.

The record behind these values is patent US6605666B1, “Polyurethane film-forming dispersions in alcohol-water system” (3M Innovative Properties Company, priority 2000, dated 2003).
